Experiment [1] deals with T1, Solute carrier family 15 member 1 (Homo sapiens, UniProt P46059).
T1 sequence (P46059 whole entry): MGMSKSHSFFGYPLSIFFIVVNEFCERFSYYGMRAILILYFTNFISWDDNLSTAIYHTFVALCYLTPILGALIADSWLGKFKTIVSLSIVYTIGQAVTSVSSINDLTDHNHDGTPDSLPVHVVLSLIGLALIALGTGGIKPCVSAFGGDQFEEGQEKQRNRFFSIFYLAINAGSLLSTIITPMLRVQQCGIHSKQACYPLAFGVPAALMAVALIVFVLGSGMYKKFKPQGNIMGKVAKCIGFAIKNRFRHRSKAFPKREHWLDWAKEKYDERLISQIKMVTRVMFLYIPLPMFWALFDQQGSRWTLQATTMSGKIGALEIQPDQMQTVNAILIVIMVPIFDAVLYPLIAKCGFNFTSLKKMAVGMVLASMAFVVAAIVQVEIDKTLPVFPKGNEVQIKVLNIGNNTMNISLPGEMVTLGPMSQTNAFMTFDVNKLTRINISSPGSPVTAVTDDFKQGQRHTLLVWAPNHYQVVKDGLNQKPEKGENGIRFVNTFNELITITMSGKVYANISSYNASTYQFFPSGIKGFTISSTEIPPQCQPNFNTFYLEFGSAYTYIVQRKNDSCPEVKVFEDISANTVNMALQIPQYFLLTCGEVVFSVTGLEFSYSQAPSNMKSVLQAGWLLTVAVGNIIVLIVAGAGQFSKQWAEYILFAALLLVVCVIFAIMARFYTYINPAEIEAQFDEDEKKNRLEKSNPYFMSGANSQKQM
In words: TP_TRANSPORTER: inhibition of Gly-Sar uptake (Gly-Sar: 20 uM) in PEPT1-expressing CHO cells. It counts as functional, cell-based.

The target of experiment [2] is T2, Solute carrier family 15 member 1 (Homo sapiens) (UniProt P46059).
T2 sequence (whole entry): T1 sequence (P46059 whole entry)
In words: TP_TRANSPORTER: uptake in PEPT1-expressing CHO cells. The experiment is classed as functional, cell-based.

This note sets out measurements from ChEMBL document CHEMBL2074372, “CHO/hPEPT1 cells overexpressing the human peptide transporter (hPEPT1) as an alternative in vitro model for peptidomimetic drugs” (J Pharm Sci, 1999).

The IC50 is the concentration that inhibits the measured activity by half. Read a high IC50 as a need for much substance. Take `CCOC(=O)[C@H](CCc1ccccc1)N[C@@H](C)C(=O)N1CCC[C@H]1C(=O)O`: the IC50 in experiment [1] amounted to 4.5 mM. Turning to `CC1=C(C(=O)O)N2C(=O)[C@@H](NC(=O)[C@H](N)C3=CCC=CC3)[C@H]2SC1` [CEPHRADINE], the Activity result in experiment [2] is “substrate [+]”. In addition, inhibition in experiment [1] was half-maximal at 15.3 mM (IC50). Compound `C[C@](N)(Cc1ccc(O)c(O)c1)C(=O)O` [METHYLDOPA] gave an IC50 in experiment [1] of 152 mM.

`N[C@@H](Cc1ccc(O)c(O)c1)C(=O)O` [LEVODOPA] came in with an IC50 in experiment [1] of 141 mM. The IC50 values of the last two compounds are within 1.5-fold of each other.

For the compound `N[C@@H](C(=O)N[C@@H]1C(=O)N2C(C(=O)O)=C(Cl)CS[C@H]12)c1ccccc1` [CEFACLOR ANHYDROUS], the Activity entry in experiment [2] is “substrate [+]”. In experiment [1], inhibition was half-maximal at 8.2 mM (IC50).
